Experimental findings from US11542274B1, “Therapeutic compounds and methods of use thereof” (AGENCY FOR SCIENCE, TECHNOLOGY AND RESEARCH (A*STAR), priority 2019, dated 2023) are described below.

Chain of truncated CRBN (319-427) (Q96SW2 319-427): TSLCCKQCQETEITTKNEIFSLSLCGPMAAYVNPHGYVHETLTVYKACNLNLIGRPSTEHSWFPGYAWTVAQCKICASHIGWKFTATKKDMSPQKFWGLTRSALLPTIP

The target in the first assay is truncated CRBN (319-427) (Homo sapiens (Human), UniProt Q96SW2). In words: Fluorescence binding assay (fluorescence quenching), affinity to E3-CEREBLON (CRBN)-ubiquitin ligase. The settings on record: ubiquitination moiety and linker, pH 6.5. The protocol:
Fluorescence quenching end point measurements were performed in black polystyrene 384-plates on Tecan Safire monochromator reader with the following settings: excitation 280 nm; excitation bandwidth 10.0 nm; emission collection 340 nm; emission bandwidth 20.0 nm; high sensitivity flash mode; integration time 40 μS; delay 0 μm. All measurements were done in duplicates; GraphPad Prism 5.03 was used for data evaluation, curve fitting, plotting and determination of IC50 values.
Serial dilutions of each tested ligands were mixed with truncated CRBN (319-427) to a final volume of 25 μL in the assay buffer (20 mM sodium phosphate buffer, pH 6.5, with 150 mM sodium chloride). The final concentration of CRBN in all assay will be 5-10 μM with DMSO level at 4%. A control lanes were prepared with only tested ligands without the addition of CRBN, top up with assay buffer to 25 μL. Plates were incubated for 5 minutes and analyzed using the monochromator plate reader.
IC50 is the compound concentration that causes 50% quenching of the desired activity.
Turning to `[N-]=[N+]=NCCOCCOCCOCCNC(=O)c1cc(-c2ccc3c(c2)NC(=O)C3)ccn1` [Compound 084, N-(2-(2-(2-(2-azidoethoxy)ethoxy)ethoxy)ethyl)-4-(2-oxoindolin-6-yl)picolinamide], the IC50 was in the range of 1 to 100 µM.

Turning to `[N-]=[N+]=NCCOCCOCCOCCNc1cc(-c2ccc3c(c2)NC(=O)C3)ccn1` [Compound 085, 6-(2-((2-(2-(2-(2-azidoethoxy)ethoxy)ethoxy)ethyl)amino)pyridin-4-yl)indolin-2-one], the IC50 lay in the range of 100 to 300 µM. Still for that read-out and setting: next, `[N-]=[N+]=NCCOCCOCCOCCNc1ccc(C(=O)Nc2ccc3c(c2)CC(=O)N3)cn1` [Compound 086, 6-((2-(2-(2-(2-azidoethoxy)ethoxy)ethoxy)ethyl)amino)-N-(2-oxoindolin-5-yl)nicotinamide]: 1 to 100 µM; `NCCCCCNc1cc(-c2ccc3c(c2)NC(=O)C3)ccn1` [Compound 087, 6-(2-((5-aminopentyl)amino)pyridin-4-yl)indolin-2-one]: more than 300 µM; `[N-]=[N+]=NCCOCCOCCOCCNc1cc(-c2ccc3c(c2)CC(=O)N3)ccn1` [Compound 088, 5-(2-((2-(2-(2-(2-azidoethoxy)ethoxy)ethoxy)ethyl)amino)pyridin-4-yl)indolin-2-one]: 100 to 300 µM. In turn, `[N-]=[N+]=NCCOCCOCCOCCNc1ccc(-c2ccc3c(c2)NC(=O)C3)cn1` [Compound 089, 6-(6-((2-(2-(2-(2-azidoethoxy)ethoxy)ethoxy)ethyl)amino)pyridin-3-yl)indolin-2-one] showed a 50% inhibitory concentration (IC50) of 100 to 300 µM. On the same count and under the same terms, next, `Nc1ccc(OCCOCCOCCOCCNC(=O)c2cccc(-c3ccc4c(c3)NC(=O)C4)c2)cc1` [Compound 090, N-(2-(2-(2-(2-(4-aminophenoxy)ethoxy)ethoxy)ethoxy)ethyl)-3-(2-oxoindolin-6-yl)benzamide]: 100 to 300 µM; `Nc1ccc(OCCOCCOCCOCCNC(=O)c2cccc(-c3ccc4c(c3)CC(=O)N4)c2)cc1` [Compound 091, N-(2-(2-(2-(2-(4-aminophenoxy)ethoxy)ethoxy)ethoxy)ethyl)-3-(2-oxoindolin-5-yl)benzamide]: 1 to 100 µM. Molecule `[N-]=[N+]=NCCOCCOCCOCCNc1ccc(-c2ccc3c(c2)CC(=O)N3)cn1` [Compound 092, 5-(6-((2-(2-(2-(2-azidoethoxy)ethoxy)ethoxy)ethyl)amino)pyridin-3-yl)indolin-2-one] registered an IC50 of 1 to 100 µM.

For `Nc1ccc(OCCOCCOCCOCCNc2ccc(-c3ccc4c(c3)CC(=O)N4)cn2)cc1` [Compound 093, 5-(6-((2-(2-(2-(2-(4-aminophenoxy)ethoxy)ethoxy)ethoxy)ethyl)amino)-pyridin-3-yl)indolin-2-one], the IC50 was 1 to 100 µM.

With `[N-]=[N+]=NCCOCCOCCOCCNc1ncccc1-c1ccc2c(c1)CC(=O)N2` [Compound 094, 5-(2-((2-(2-(2-(2-azidoethoxy)ethoxy)ethoxy)ethyl)amino)pyridin-3-yl)indolin-2-one], the IC50 lay in the range of 100 to 300 µM. The same measure, in the same setting: then `[N-]=[N+]=NCCOCCOCCOCCNc1ncccc1-c1ccc2c(c1)NC(=O)C2` [Compound 095, 6-(2-((2-(2-(2-(2-azidoethoxy)ethoxy)ethoxy)ethyl)amino)pyridin-3-yl)indolin-2-one], with more than 300 µM.

Staying with this assay, now noted: ubiquitination moiety, pH 6.5.
As for `O=C1Cc2ccc(C3=CCN(C(=O)OCc4ccccc4)CC3)cc2N1` [Compound 063, benzyl 4-(2-oxoindolin-6-yl)-3,6-dihydropyridine-1(2H)-carboxylate], the IC50 is more than 300 µM. The same measure, in the same setting: next, `O=C1Cc2ccc(-c3ccc(N4CCCCC4)nc3)cc2N1` [Compound 064, 6-(6-(piperidin-1-yl)pyridin-3-yl)indolin-2-one]: more than 300 µM; `O=C1Cc2ccc(-c3ccc(N4CCNCC4)nc3)cc2N1` [Compound 065, 6-(6-(piperazin-1-yl)pyridin-3-yl)indolin-2-one]: more than 300 µM. The same measure, in the same setting: then `CCOC(=O)c1cc(-c2ccc3c(c2)NC(=O)C3)ccn1` [Compound 066, ethyl 4-(2-oxoindolin-6-yl)picolinate], with more than 300 µM; and `CN1CCN(C(=O)c2ccc3c(c2)CC(=O)N3)CC1` [Compound 067, 5-(4-methylpiperazine-1-carbonyl)indolin-2-one], with more than 300 µM.

The molecule `O=C1Cc2cc(C(=O)N3CCC(c4ccccc4)CC3)ccc2N1` [Compound 068, 5-(4-phenylpiperidine-1-carbonyl)indolin-2-one] came in with an IC50 of 100 to 300 µM. The same measure, in the same setting: then `O=C1Cc2cc(C(=O)N3CCC(Cc4ccccc4)CC3)ccc2N1` [Compound 069, 5-(4-benzylpiperidine-1-carbonyl)indolin-2-one], with more than 300 µM; and `O=C1Cc2ccc(-c3ccc(F)nc3)cc2N1` [Compound 070, 6-(6-fluoropyridin-3-yl)indolin-2-one], with more than 300 µM. In turn, `O=C1Cc2ccc(NC(=O)c3cccnc3)cc2N1` [Compound 071, N-(2-oxoindolin-6-yl)nicotinamide] showed an IC50 of 100 to 300 µM. Same read-out and setting: next, `O=C1Cc2cc(NC(=O)c3cccnc3)ccc2N1` [Compound 072, N-(2-oxoindolin-5-yl)nicotinamide]: 100 to 300 µM. On to `O=C1Cc2cc(-c3ccncc3)ncc2N1` [Compound 073, 5-(pyridin-4-yl)-1,3-dihydro-2H-pyrrolo[2,3-c]pyridin-2-one], for which the concentration for half-maximal inhibition (IC50) was more than 300 µM. On the same count and under the same terms, then `O=C1Cc2cnc(-c3ccncc3)cc2N1` [Compound 074, 6-(pyridin-4-yl)-1,3-dihydro-2H-pyrrolo[3,2-c]pyridin-2-one], with 100 to 300 µM; and `O=C1Cc2ncc(-c3ccncc3)cc2N1` [Compound 075, 6-(pyridin-4-yl)-1,3-dihydro-2H-pyrrolo[3,2-b]pyridin-2-one], with more than 300 µM; and `O=C1Cc2cc(NC(=O)c3ccnc(F)c3)ccc2N1` [Compound 076, 2-fluoro-N-(2-oxoindolin-5-yl)isonicotinamide], with 100 to 300 µM. `NC1CCN(C(=O)c2ccc3c(c2)NC(=O)C3)CC1` [Compound 077, 6-(4-aminopiperidine-1-carbonyl)indolin-2-one] displayed an IC50 of more than 300 µM. `NC1CCN(C(=O)c2ccc3c(c2)CC(=O)N3)CC1` [Compound 078, 5-(4-aminopiperidine-1-carbonyl)indolin-2-one] displayed an IC50 of more than 300 µM. Consider `COC(=O)c1ccccc1-c1ccc2c(c1)NC(=O)C2` [Compound 079, methyl 2-(2-oxoindolin-6-yl)benzoate], for which the IC50 was more than 300 µM. The molecule `NC1CCCN(C(=O)c2ccc3c(c2)NC(=O)C3)C1` (stereo not shown) [Compound 080, 6-(3-aminopiperidine-1-carbonyl)indolin-2-one] came in with an IC50 of more than 300 µM. On the same count and under the same terms, then `NC1CCCN(C(=O)c2ccc3c(c2)CC(=O)N3)C1` (stereo not shown) [Compound 081, 5-(3-aminopiperidine-1-carbonyl)indolin-2-one], with more than 300 µM; and `CC(C)C1C(=O)Nc2ccc(-c3ccncc3)cc21` (stereo not shown) [Compound 082, 3-isopropyl-5-(pyridin-4-yl)indolin-2-one], with more than 300 µM; and `CN1C(=O)Cc2cc(C(=O)N3CCCCC3)ccc21` [Compound 083, 1-methyl-5-(piperidine-1-carbonyl)indolin-2-one], with more than 300 µM. Same read-out and setting: then “N-(1-acetylpiperidin-4-yl)-2-oxoindoline-6-carboxamide [Compound 026]”, with more than 300 µM.

In the next assay the test system is RAMOS cells (Burkitt's lymphoma cell line). In words: Anti-proliferation assay (CellTiter-Glo). The settings on record: Homo sapiens, 72 h, 3 days. The assay is classed as cell-based. The protocol:
In cell growth experiments, cells were seeded in 96-well cell culture plates at a density of 3000 of RAMOS cells/well in 100 μL of culture medium. 100 μL of the diluted solution containing the tested compound was added to the appropriate wells of the cell plate. After addition of the tested compound, the cells were incubated at 37° C. in an atmosphere of 5% CO2 for 3 days. CellTiter-Glo (CTG) reagent from the Promega CellTiter-Glo Luminescent Cell Viability Assay kit (#G7572) was added into an OptiPlate 96 (Perkin Elmer, White, Opaque, #6005299) in the dark, incubated for at least 2 hrs, and luminescence signal was read using Tecan Safire II Multi-Mode Plate Reader. The GI50 was calculated by nonlinear regression analysis using GraphPad Prism5 software.
GI50 is the concentration for 50% of maximal inhibition of cell proliferation.
Take `Cc1sc2c(c1C)C(c1ccc(Cl)cc1)=N[C@@H](CC(=O)NCCCCCNc1cc(-c3ccc4c(c3)NC(=O)C4)ccn1)c1nnc(C)n1-2` [Compound 096, (S)-2-(4-(4-chlorophenyl)-2,3,9-trimethyl-6H-thieno[3,2-f][1,2,4]triazolo[4,3-a][1,4]diazepin-6-yl)-N-(5-((4-(2-oxoindolin-6-yl)pyridin-2-yl)amino)pentyl)acetamide]: the GI50 was in the range of 0.1 to 1 µM.

With `Cc1sc2c(c1C)C(c1ccc(Cl)cc1)=N[C@@H](CC(=O)NCCOCCOCCOCCNc1cc(-c3ccc4c(c3)CC(=O)N4)ccn1)c1nnc(C)n1-2` [Compound 097, (S)-2-(4-(4-chlorophenyl)-2,3,9-trimethyl-6H-thieno[3,2-f][1,2,4]triazolo[4,3-a][1,4]diazepin-6-yl)-N-(2-(2-(2-(2-((4-(2-oxoindolin-5-yl)pyridin-2-yl)amino)ethoxy)ethoxy)ethoxy)ethyl)acetamide], the GI50 was more than 1 µM. As to `Cc1sc2c(c1C)C(c1ccc(Cl)cc1)=N[C@@H](CC(=O)Nc1ccc(OCCOCCOCCOCCNc3ccc(-c4ccc5c(c4)CC(=O)N5)cn3)cc1)c1nnc(C)n1-2` [Compound 098, (S)-2-(4-(4-chlorophenyl)-2,3,9-trimethyl-6H-thieno[3,2-f][1,2,4]triazolo[4,3-a][1,4]diazepin-6-yl)-N-(4-(2-(2-(2-(2-((5-(2-oxoindolin-5-yl)pyridin-2-yl)amino)ethoxy)ethoxy)ethoxy)ethoxy)phenyl)acetamide], the GI50 lay within 0.001 to 0.1 µM.
